Reference: PMC11123039, “The Helix Ring Peptide U11 from the Venom of the Ant, Tetramorium bicarinatum, Acts as a Putative Pore-Forming Toxin” (Membranes, 2024)

Experiments:
[1] = test system: vertebrate and invertebrate cells; conditions: component of Apis mellifera venom; cited from earlier work
Excerpt: Ant venom peptides have previously been classified based on their structure into three main groups: linear, dimeric or inhibitor cystine knot (ICK)-like peptides [for a review, see [2]]. An alternative approach for classification follows their biological activity, with two main characteristics: cytolytic or neurotoxic. […] Such a phenomenon is indicative of cytolysis or cytotoxicity and may be explained by pore formation. […] In non-injected control oocytes, the current ...

[2] = test system: voltage-gated sodium (Nav) channels; conditions: vertebrates and invertebrates; blocks synaptic transmission in insect CNS; cited from earlier work
Excerpt: Ant venom peptides have previously been classified based on their structure into three main groups: linear, dimeric or inhibitor cystine knot (ICK)-like peptides [for a review, see [2]]. An alternative approach for classification follows their biological activity, with two main characteristics: cytolytic or neurotoxic. […] They often act as amphipathic, helical structures forming pores through biological membranes, disturbing t ...

Shaker IR = assay: Two-electrode voltage clamp, Shaker IR; assay type: cell-based, Drosophila melanogaster; conditions: control toxin, 2.5 μM; Xenopus laevis oocytes, ND96, two-electrode voltage clamp

melittin
cytolysis via pore formation [1]: cytolysis via a process of pore formation

poneratoxin
modulation of Nav channels [2]: modulate voltage-gated sodium (Nav) channels of both vertebrates and invertebrates

charybdotoxin
block of Shaker IR currents (Shaker IR): clear block
